US20240325544A1, “CATIONIC LIPID FOR COVALENT MODIFICATION OF PEPTIDES” (PharmalN Corporation, priority 2023, published 2024)
Bridge positions count the residues as written; N and C are the ends. Square brackets hold non-standard residues; d marks the D form. Peptide text beside a SMILES is read from it. * marks the point of attachment. Palmitoyl = CCCCCCCCCCCCCCCC(=O)*; Dap = NC[C@H](N)C(=O)O; AEEA = NCCOCCOCC(=O)O

Columns and labels:
C57BL/6J mice = test: Acute exacerbation of idiopathic pulmonary fibrosis (IPF-AE) model, bleomycin + LPS (FIG. 5); format: in vivo; settings: Bleo 1.0 mg/kg IT, LPS 0.025 mg/kg IT; 0.3 mg/kg SC day before, of and after LPS
Experimental: FIGS. 5A-5E: The effect of cationic alkyl modified CNP derivatives in inflammation status of acute exacerbation of idiopathic pulmonary fibrosis (IPF-AE). Error bars indicate standard error of the mean. Increased inflammatory status in lung, especially increase of neutrophils, MCP1, IL-6, are seen in IPF-AE. Its decrease indicates resolution of IPF-AE. […] After 3 weeks, mice were treated with LPS (0.025 mg/kg IT) and treated SC with SEQ ID NO: 29 or 31 at 0.3 mg/kg (0.1 μmol/kg) the day before, of, and after LPS treatment as shown in the diagram. Additionally, a normal control (NC) group without LPS/Bleo treatment, a Bleo group without LPS treatment, and a Control group without test article treatment were also included. […]
Animal care and treatment: Male C57BL/6J mice (6 weeks-old) were purchased from Kyudo (Saga, Japan) and maintained under a 12-hour light/12-hour dark cycle with free access to water and standard mouse diet (MF diet, Oriental Yeast Co., Ltd. Tokyo, Japan). […] Lung weight/body weight ratio increase is a commonly measured parameter that indicates lung damage. […] The expression of MPO was assessed by Image J (NIH, Bethesda, MD, USA). […] Macrophage chemoattractant protein-1 (MCP1) was measured by using ELISA kit (R&D SYSTEMS, Minneapolis M N). […] The gene expression levels of IL-6 were measured with qRT-PCR-analysis by using cDNA synthesis kit (Qiagen; Venlo, the Netherlands). […]

[1] = test system: E0771 breast cancer cells; test: Orthotopic E0771 breast cancer model, monotherapy or with anti-PD1 Ab (FIG. 9); format: in vivo, mice
Experimental: FIG. 9. […] Error bars represent standard error of the mean. Tumor growth kinetics of 6-week-old female C57BL/6J mice (n=7-8 per group) that were orthotopically inoculated with E0771 breast cancer cells (250,000 cells/mouse) in the mammary gland. Starting from Day 4 post-inoculation, anti-PD1 Ab (aPD1) was administered intraperitoneally at 5 mg/kg twice a week for 2 cycles; SEQ ID NO: 31 was administered subcutaneously at a bolus dose of 0.3 mg/kg once daily for 5 days (5 days on, 2 days off) for 3 cycles; or a combination of aPD1 (5 mg/kg IP twice a week; 2 cycles) and SEQ ID NO: 31 (0.3 mg/kg SC once a day for 5 days on and 2 days off; 3 cycles); SEQ ID NO: 31 dose days indicated by dotted line or gridlines. The control group, which received only buffer, was dosed in the same manner as SEQ ID NO: 31 to establish the baseline tumor growth kinetics. […] Statistical analysis was based on Dunnett's test performed by using GraphPad (n=8, 7, 8, and 7; Control, aPD1, SEQ ID NO: 31, Combo (aPD1 and SEQ ID NO: 31) * P<0.05, **** P<0.0001 vs Control group.
Animal care and treatment: Female C57BL/6J mice (6 weeks-old) were purchased from Kyudo (Saga, Japan) and maintained under a 12-hour light/12-hour dark cycle with free access to water and standard mouse diet (CRF diet; Oriental Yeast Co., Ltd, Tokyo Japan). […] Tumor sizes were measured using calipers.

Structure (SMILES): CCCCCCCCCCCCCCCC(=O)NCCOCCOCC(=O)NCCOCCOCC(=O)NCCOCCOCC(=O)N[C@@H](CN)C(=O)N[C@@H](CN)C(=O)NCC(=O)N[C@@H](CC(C)C)C(=O)N[C@@H](CO)C(=O)N[C@@H](CCCCN)C(=O)NCC(=O)N[C@H]1CSSC[C@@H](C(=O)O)NC(=O)CNC(=O)[C@H](CC(C)C)NC(=O)CNC(=O)[C@H](CO)NC(=O)[C@H](CCC(N)=O)NC(=O)[C@H](CO)NC(=O)CNC(=O)[C@H]([C@@H](C)CC)NC(=O)[C@H](CCCNC(=N)N)NC(=O)[C@H](CC(=O)O)NC(=O)[C@H](CC(C)C)NC(=O)[C@H](CCCCN)NC(=O)[C@H](CC(C)C)NC(=O)CNC(=O)[C@H](Cc2ccccc2)NC1=O [SEQ ID NO: 31] ({Palmitoyl-AEEA-AEEA-AEEA}-[Dap][Dap]GLSKGCFGLKLDRIGSQSGLGC-OH; disulfide 8-24; C-terminus assumed)
- MCP1 in lung (C57BL/6J mice): significant decrease of MCP1
- Tumor volume compared to Control group and aPD1 group ([1]; combination with aPD1 5 mg/kg IP twice a week, 2 cycles): significant decrease in tumor volume
- Tumor volume compared to Control group and aPD1 group ([1]; monotherapy, 0.3 mg/kg SC, 5 days on, 2 days off, 3 cycles): significant decrease in tumor volume
